Experimental findings from PubChem BioAssay AID977612 (Broad Institute, 2014) are described below.

Activity calls are given as the source filed them.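 Rule for the calls: active = compounds lowering the signal whose fitted AC50 is at most twice their top tested dose; inconclusive = flat fit with 30 to 70% inhibition, or poor fit; inactive = the rest.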 Some results are limits rather than exact numbers.

In the test the target is Drosophila melanogaster bursicon receptor (rickets, LGR2). Nature of the test: LGR2 bursicon receptor antagonists, dose response, cell-based, HEK293, CRE-luciferase, luminescence, dry powder (AID 977612). Conditions: bursicon-stimulated, antagonist luminescence; for activity change, negative = inhibition: at 35 µM (top of the series).

The term AC50 denotes the midpoint of the concentration-response curve, whichever way the signal moves. As for `C[C@@H]1CCCCO[C@@H](CN(C)C(=O)Nc2cccc3ccccc23)[C@@H](C)CN([C@@H](C)CO)C(=O)c2cc(NC(=O)C3CCCCC3)ccc2O1`, the AC50 is > 70 µM (inactive).

As to `C[C@H]1CCCCO[C@H](CN(C)C(=O)Nc2cccc3ccccc23)[C@@H](C)CN([C@@H](C)CO)C(=O)c2cc(NC(=O)C3CCCCC3)ccc2O1`, the “activity change, negative = inhibition” value is “inactive”.

Regarding `C[C@H]1CCCCO[C@@H](CN(C)C(=O)Nc2ccc(F)cc2)[C@@H](C)CN([C@@H](C)CO)C(=O)c2cc(NC(=O)C3CCCCC3)ccc2O1`, the AC50 is 11.4 µM.

`C[C@@H]1CN([C@@H](C)CO)C(=O)c2cc(NC(=O)C3CCCCC3)ccc2O[C@@H](C)CCCCO[C@H]1CN(C)C(=O)Nc1cccc2ccccc12`: the AC50 is > 70 µM (inactive).

`C[C@H](CO)N1C[C@H](C)[C@H](CN(C)C(=O)Nc2ccc(F)cc2)OCCCC[C@H](C)Oc2ccc(NC(=O)C3CCOCC3)cc2C1=O`: the “activity change, negative = inhibition” value is “inactive”.

For the compound `C[C@H](CO)N1C[C@H](C)[C@H](CN(C)C(=O)Nc2ccccc2)OCCCC[C@H](C)Oc2ccc(NC(=O)C3CCCCC3)cc2C1=O`, the AC50 is 12.6 µM.

On to `C[C@@H]1CN([C@@H](C)CO)C(=O)c2cc(NC(=O)C3CCCCC3)ccc2O[C@@H](C)CCCCO[C@@H]1CN(C)C(=O)Nc1cccc2ccccc12`, for which the “activity change, negative = inhibition” value is “inactive”.

For `C[C@H](CO)N1C[C@H](C)[C@H](CN(C)C(=O)Nc2cccc3ccccc23)OCCCC[C@H](C)Oc2ccc(NC(=O)NC3CCCCC3)cc2C1=O`, the AC50 is 23.2 µM.

As for `C[C@H](CO)N1C[C@H](C)[C@H](CN(C)C(=O)Nc2ccc3c(c2)OCO3)OCCCC[C@H](C)Oc2ccc(NC(=O)NC3CCCCC3)cc2C1=O`, the AC50 was 31 µM.

Take `C[C@@H]1CCCCO[C@H](CN(C)C(=O)Nc2cccc3ccccc23)[C@@H](C)CN([C@@H](C)CO)C(=O)c2cc(NC(=O)C3CCCCC3)ccc2O1`: the AC50 is > 70 µM (inactive).

For the compound `C[C@H](CO)N1C[C@H](C)[C@H](CN(C)C(=O)Nc2ccc(C(F)(F)F)cc2)OCCCC[C@H](C)Oc2ccc(NC(=O)CCC(F)(F)F)cc2C1=O`, the concentration at half-maximal activity (AC50) was 15 µM.

As for `CC(C)(C)c1ccc(-c2nc(-c3ccncc3)no2)cc1`, the “activity change, negative = inhibition” value was “inactive”.

Turning to `COc1ccc(S(=O)(=O)N(C)C[C@@H]2OCCCC[C@H](C)Oc3ccc(NS(=O)(=O)c4ccc(Cl)cc4)cc3C(=O)N([C@@H](C)CO)C[C@@H]2C)cc1`, the AC50 is 19.1 µM.

Regarding `C[C@H]1CCCCO[C@@H](CN(C)S(=O)(=O)c2ccc(Cl)cc2)[C@@H](C)CN([C@@H](C)CO)C(=O)c2cc(NC(=O)NC3CCCCC3)ccc2O1`, the “activity change, negative = inhibition” value is “inactive”.

With `C[C@@H]1CCCCO[C@H](CN(C)C(=O)Nc2cccc3ccccc23)[C@@H](C)CN([C@H](C)CO)C(=O)c2cc(NC(=O)C3CCCCC3)ccc2O1`, the “activity change, negative = inhibition” value is “inactive”.

For the compound `C[C@H](CO)N1C[C@H](C)[C@H](CN(C)C(=O)Nc2ccc(F)cc2)OCCCC[C@H](C)Oc2ccc(NC(=O)NC3CCCCC3)cc2C1=O`, the AC50 was 21.4 µM.

Take `COc1ccc(NC(=O)N(C)C[C@@H]2OCCCC[C@H](C)Oc3ccc(NC(=O)C4CCCCC4)cc3C(=O)N([C@H](C)CO)C[C@@H]2C)cc1`: the AC50 was 10.1 µM.

Turning to `C[C@H](CO)N1C[C@H](C)[C@H](CN(C)C(=O)Nc2ccccc2)OCCCC[C@H](C)Oc2ccc(NC(=O)NC3CCCCC3)cc2C1=O`, the AC50 was 20.9 µM.

As to `C[C@@H]1CN([C@H](C)CO)C(=O)c2cc(NC(=O)C3CCCCC3)ccc2O[C@@H](C)CCCCO[C@H]1CN(C)C(=O)Nc1cccc2ccccc12`, the AC50 was > 70 µM (inactive).

Turning to `C[C@H](CO)N1C[C@H](C)[C@H](CN(C)C(=O)Nc2ccc(F)cc2)OCCCC[C@H](C)Oc2ccc(NC(=O)C3CCCCC3)cc2C1=O`, the half-maximal activity concentration (AC50) is 6.2 µM.

For the compound `C[C@H](CO)N1C[C@H](C)[C@H](CN(C)C(=O)Nc2ccccc2)OCCCC[C@H](C)Oc2ccc(NC(=O)CCC(F)(F)F)cc2C1=O`, the AC50 was 36.3 µM.

Turning to `CC(=O)Nc1ccc2c(c1)C(=O)N([C@H](C)CO)C[C@H](C)[C@H](CN(C)C(=O)Nc1ccc(F)cc1)OCCCC[C@H](C)O2`, the “activity change, negative = inhibition” value is “inactive”.

Consider `C[C@H](CO)N1C[C@H](C)[C@H](CN(C)C(=O)Nc2ccc(F)cc2)OCCCC[C@H](C)Oc2ccc(NC(=O)C3CC3)cc2C1=O`, for which the “activity change, negative = inhibition” value is “inactive”.

`COc1ccc(NC(=O)N(C)C[C@@H]2OCCCC[C@H](C)Oc3ccc(NC(=O)NC4CCCCC4)cc3C(=O)N([C@H](C)CO)C[C@@H]2C)cc1`: the half-maximal activity concentration (AC50) is 30.8 µM.

For `C[C@@H]1CCCCO[C@@H](CN(C)C(=O)Nc2cccc3ccccc23)[C@H](C)CN([C@H](C)CO)C(=O)c2cc(NC(=O)C3CCCCC3)ccc2O1`, the “activity change, negative = inhibition” value was “inactive”.

With `C[C@H](CO)N1C[C@H](C)[C@H](CN(C)C(=O)Nc2cccc3ccccc23)OCCCC[C@H](C)Oc2ccc(NC(=O)c3ccccc3)cc2C1=O`, the AC50 was 22.8 µM.

Turning to `C[C@@H]1CN([C@H](C)CO)C(=O)c2cc(NC(=O)C3CCCCC3)ccc2O[C@@H](C)CCCCO[C@@H]1CN(C)C(=O)Nc1cccc2ccccc12`, the AC50 was > 70 µM (inactive).

With `C[C@H](CO)N1C[C@H](C)[C@H](CN(C)C(=O)Nc2ccc3c(c2)OCO3)OCCCC[C@H](C)Oc2ccc(NC(=O)C3CCCCC3)cc2C1=O`, the AC50 is 10.5 µM.

In the case of `C[C@H]1CCCCO[C@@H](CN(C)C(=O)Nc2ccc(C(F)(F)F)cc2)[C@@H](C)CN([C@@H](C)CO)C(=O)c2cc(NC(=O)CCC(F)(F)F)ccc2O1`, the AC50 is 31.7 µM.

As to `C[C@H](CO)N1C[C@H](C)[C@@H](CN(C)C(=O)Nc2cccc3ccccc23)OCCCC[C@H](C)Oc2ccc(NC(=O)C3CCCCC3)cc2C1=O`, the “activity change, negative = inhibition” value was “inactive”.

For `C[C@H](CO)N1C[C@H](C)[C@H](CN(C)C(=O)Nc2cccc3ccccc23)OCCCC[C@H](C)Oc2ccc(NC(=O)CCC(F)(F)F)cc2C1=O`, the AC50 is 13.1 µM.

For `C[C@@H]1CCCCO[C@H](CN(C)C(=O)Nc2cccc3ccccc23)[C@H](C)CN([C@H](C)CO)C(=O)c2cc(NC(=O)C3CCCCC3)ccc2O1`, the “activity change, negative = inhibition” value was “inactive”.

`C[C@@H]1CCCCO[C@@H](CN(C)C(=O)Nc2cccc3ccccc23)[C@H](C)CN([C@@H](C)CO)C(=O)c2cc(NC(=O)C3CCCCC3)ccc2O1`: the “activity change, negative = inhibition” value was “inactive”.

For the compound `C[C@@H]1CCCCO[C@@H](CN(C)C(=O)Nc2cccc3ccccc23)[C@@H](C)CN([C@H](C)CO)C(=O)c2cc(NC(=O)C3CCCCC3)ccc2O1`, the “activity change, negative = inhibition” value is “inactive”.

Consider `C[C@@H]1CCCCO[C@H](CN(C)C(=O)Nc2cccc3ccccc23)[C@H](C)CN([C@@H](C)CO)C(=O)c2cc(NC(=O)C3CCCCC3)ccc2O1`, for which the “activity change, negative = inhibition” value is “inactive”.
